Data reported in patent US20250084116A1, “MIXTURE OF STEREOISOMERS OF A SULFATED GLYCOLIPID” (NATIONAL RESEARCH COUNCIL OF CANADA, priority 2022, published 2025).
Entries after “also recorded” stand apart in the source; their conditions may differ.

Assays:
C57BL/6NCrl mice [1] = experiment: Anti-Ova total IgG titres in serum of immunized mice (ELISA); type: in vivo; details: day 28, two immunizations, 1 μg Ova and 1 mg SLA
Source text: (§1) C57BL/6NCrl mice (6-8 weeks) were obtained from Charles River Laboratories (Saint-Constant, QC, Canada). Mice were maintained in individually ventilated cages with five female mice to a cage with easy access to food and water in a specific pathogen-free small animal facility with automatically controlled light/dark cycles, humidity and temperature at the National Research Council of Canada (NRC) in accordance with the guidelines of the Canadian Council on Animal Care. The animal use protocol (2016.08) was approved by the NRC Animal Care Committee. All mice were randomized upon entering the facility and were immunized and had samples collected and tested in a blinded method.
C57BL/6NCrl mice were immunized by i.m. injection (50 μL) into the left tibialis anterior muscle. All mice were immunized twice in a prime/boost regime on day 0 and day 21. […]
Anti-Ova total IgG titers in mouse serum were quantified by ELISA as described previously.^11-12 Briefly, 96-well high-binding ELISA plates (Thermo Fisher Scientific, Waltham, MA, USA) were coated overnight with 10 μg/mL of the Ova protein used for immunization. […] No detectable titers were measured in serum samples from naïve control animals.
(§2) Data were analyzed using GraphPad Prism 9® (GraphPad Software, San Diego, CA, USA). […]

C57BL/6NCrl mice [2] = experiment: Enumeration of IFN-γ secreting Ova-CD8+ T cells in spleen by ELISPOT; type: in vivo; details: for Number of IFN γ-secreting Ova-CD8+ T cells, comparison with AddaVax-Ova (ANOVA, Tukey) / Number of IFN γ-secreting Ova-CD8+ T cells, comparison with MPL/alum-Ova (ANOVA, Tukey): 10 μg Ova and 1 mg SLA; for Change in ability to induce IFN-γ+ Ova-CD8+ T cells on reducing SLA dose: 1.0 mg reduced to 0.3 mg SLA; for Differences between SLA formulations to produce IFN-γ+ Ova-CD8+ T cells: at each dose tested
Source text: as §1
(§3) C57BL/6NCrl mice were immunized by i.m. injection (50 μL) into the left tibialis anterior muscle. All mice were immunized twice in a prime/boost regime on day 0 and day 21. Blood samples were taken for sera collection before boost on day 20 as well as on day 28 immediately prior to euthanasia where whole spleens were collected in necropsy.
(§4) SLA archaeosomes were prepared as described previously.^12 Briefly, SLA lipids (SLA-1, SLA-2 or SLA-3) were dissolved in chloroform/methanol and aliquoted to a glass vial; the organic solvent was removed under N2 gas with mild heating to form a thin lipid layer. A vacuum was applied for at least 2 h to ensure total removal of trace solvents. The lipid film was then hydrated with 1.0 mL of Milli-Q water and was shaken for 2 h at 40° C. or until hydration was completed. Archaeosome vesicles were reduced in size using a tabletop ultrasonic water bath (Fisher Scientific FS60H, 130 W and operating frequency of 40 kHz) and high pressure; they were then left to anneal at 4° C. for 12 h in static conditions and finally filter-sterilized through 0.22 μm filter units. The Ova protein solution (type VI, Sigma-Aldrich, Oakville, ON, Canada) was then added to the empty archaeosomes at the desired amount immediately before immunization so that a single dose contained 1 mg or 0.3 mg of SLA and 10 μg or 1 μg of antigen. The commercial adjuvant AddaVax™ (squalene-oil-in-water emulsion, Invivogen, San Diego, CA, USA) was prepared according to manufacturer's recommendations and mixed with 10 μg Ova protein at 1:1, v:v. The TLR4 agonist monophosphoryl Lipid A (MPLA from S. Minnesota R595 VacciGrade, InvivoGen, San Diego, CA, USA) was combined with Alum (Alhydrogel™ “85”, aluminum hydroxide, Brenntag Biosector, Frederikssund, Denmark), 10 μg: 40 μg respectively and 1 μg Ova. All solutions were brought to a physiological pH of 7.4 in phosphate-buffered saline (PBS).
The Enumeration of IFN-γ secreting cells was done by use of an ELISPOT assay as previously described.^12 Briefly, spleen cells (at a final cell density of 4×10^5 cells/well) were added to 96-well ELISPOT plates coated with anti-IFN-γ (Mabtech Inc., Cincinnati, OH, USA), and incubated in the presence of a peptide stimulant (or non-stimulant control) for 20 h at 37° C., 5% CO2. Peptide stimulant consisted of SIINFEKL, an Ovalbumin CD8^+ T cell epitope Ova257-264. Plates were then incubated, washed and developed using AEC substrate (Becton Dickinson, Franklin Lakes, NJ, USA) and counted using an automated ELISPOT plate reader by BIOSYS (Miami, FL, USA).
Data were analyzed using GraphPad Prism 9® (GraphPad Software, San Diego, CA, USA). Antibody titers were log transformed prior to testing and shown as geometric mean titer (GMT) with the lower and upper 95% confidence interval shown in the graph and written in the text. All in vivo generated data were analyzed with the one-way analysis of variance (ANOVA) test followed by post-hoc analysis using Tukey's multiple comparisons test (comparisons among all groups), as indicated in the figure legends. For all analyses, differences were considered to be not significant with p>0.05.

C57BL/6NCrl mice [3] = experiment: In vivo cytotoxicity assay of Ova-CD8+ T cells; details: for In vivo cytotoxicity of Ova-CD8+ T cells, comparison with AddaVax-Ova (ANOVA, Tukey): 10 μg Ova and 1 mg SLA, target cells injected day 27, read day 28; for Change in cytotoxic killing on reducing SLA dose: 1.0 mg reduced to 0.3 mg SLA; for CD8+ T cell cytotoxicity at lower Ova antigen or SLA adjuvant dose: lower dose (1 μg Ova or 0.3 mg SLA) versus optimal dose
Source text: as §1, §3, §4
The activity of antigen-specific CD8^+ T cells (CTL) was measured in vivo as previously described.^10 Briefly, donor spleen-cell suspensions from naïve C57BL/6NCrl mice were prepared. Cells were split into two aliquots. One aliquot was incubated at 37° C. with […] SIINFEKL (JPT Peptide Technologies GmbH) in RIO complete medium (RPMI 1640 with 10% heat-inactivated fetal bovine serum, 1% penicillin/streptomycin, 1% glutamine and 55 μM 2-mercaptoethanol) (Thermo Fisher Scientific, Waltham, MA, USA). After 30 min of incubation, the peptide-pulsed aliquot was stained with a high 10× concentration of CFSE (2.5 μM; Thermo Fisher Scientific); the second non-peptide-pulsed aliquot was stained with 1×CFSE ([…]). Two aliquots of cells (10×10^6/each) were mixed 1:1 and injected into previously immunized recipient mice. Mice injected with Ova alone dissolved in PBS served as controls. At ˜20 to 22 h after the donor cell transfer, spleens were removed from recipients, single-cell suspensions prepared, and cells analyzed by flow cytometry on a BD Fortessa flow cytometer (Becton Dickinson, Franklin Lakes, NJ, USA). The in vivo percentage of peptide pulsed targets relative to non-peptide pulsed targets was enumerated according to a previously published equation.^21, 24-25
as §2

CC(C)CCCC(C)CCCC(C)CCCC(C)CCOCC(CO[C@@H]1OC(CO)C(O[C@@H]2OC(COS(=O)(=O)O)C(O)[C@H](O)C2O)[C@H](O)C1O)OCCC(C)CCCC(C)CCCC(C)CCCC(C)C (mixture of isomers) [SLA-3]
Anti-Ova IgG titres, comparison with MPL/alum (one-way ANOVA, Tukey) (C57BL/6NCrl mice [1]): SLA-3>MPL/alum-Ova | Number of IFN γ-secreting Ova-CD8+ T cells, comparison with AddaVax-Ova (ANOVA, Tukey) (C57BL/6NCrl mice [2]; day 28): SLA-3>AddaVax™-Ova | Number of IFN γ-secreting Ova-CD8+ T cells, comparison with MPL/alum-Ova (ANOVA, Tukey) (C57BL/6NCrl mice [2]; day 28): SLA-3>MPL/alum-Ova | Change in ability to induce IFN-γ+ Ova-CD8+ T cells on reducing SLA dose (C57BL/6NCrl mice [2]): Lesser reductions | Adjuvant effectiveness relative to SLA-1 (IFN-γ ELISPOT) (C57BL/6NCrl mice [2]; FIG. 7): at least as effective as SLA-1; also recorded: as effective an adjuvant as semi-synthetically produced SLA | Differences between SLA formulations to produce IFN-γ+ Ova-CD8+ T cells (C57BL/6NCrl mice [2]): no statistically significant differences | In vivo cytotoxicity of Ova-CD8+ T cells, comparison with AddaVax-Ova (ANOVA, Tukey) (C57BL/6NCrl mice [3]): SLA-3>AddaVax™-Ova | Change in cytotoxic killing on reducing SLA dose (C57BL/6NCrl mice [3]): Lesser reductions | Adjuvant effectiveness relative to SLA-1 (cytotoxic killing) (C57BL/6NCrl mice [3]; FIG. 8): at least as effective as SLA-1 | CD8+ T cell cytotoxicity at lower Ova antigen or SLA adjuvant dose (C57BL/6NCrl mice [3]): lower CD8^+ T cell cytotoxicity

CC(C)CCCC(C)CCCC(C)CCCC(C)CCOC[C@@H](CO[C@@H]1O[C@H](CO)[C@@H](O[C@@H]2O[C@H](COS(=O)(=O)O)[C@H](O)[C@H](O)[C@H]2O)[C@H](O)[C@H]1O)OCCC(C)CCCC(C)CCCC(C)CCCC(C)C (stereo partly drawn) [SLA-1, 6′-sulfate-β-D-Galp-(1,4)-β-D-Glcp-(1,1)-archaeol, reference compound]
Anti-Ova IgG titres, comparison with MPL/alum (one-way ANOVA, Tukey) (C57BL/6NCrl mice [1]): SLA-1>MPL/alum-Ova | Number of IFN γ-secreting Ova-CD8+ T cells, comparison with AddaVax-Ova (ANOVA, Tukey) (C57BL/6NCrl mice [2]; day 28): SLA-1>AddaVax™-Ova | Number of IFN γ-secreting Ova-CD8+ T cells, comparison with MPL/alum-Ova (ANOVA, Tukey) (C57BL/6NCrl mice [2]; day 28): SLA-1>MPL/alum-Ova | Change in ability to induce IFN-γ+ Ova-CD8+ T cells on reducing SLA dose (C57BL/6NCrl mice [2]): significantly reduces | Differences between SLA formulations to produce IFN-γ+ Ova-CD8+ T cells (C57BL/6NCrl mice [2]): no statistically significant differences | In vivo cytotoxicity of Ova-CD8+ T cells, comparison with AddaVax-Ova (ANOVA, Tukey) (C57BL/6NCrl mice [3]): SLA-1>AddaVax™-Ova | Change in cytotoxic killing on reducing SLA dose (C57BL/6NCrl mice [3]): significantly reduces | CD8+ T cell cytotoxicity at lower Ova antigen or SLA adjuvant dose (C57BL/6NCrl mice [3]): lower CD8^+ T cell cytotoxicity

Ova: Ova protein (type VI, Sigma-Aldrich), model antigen; unadjuvanted control group [reference compound]
IFN-γ detectable spots (C57BL/6NCrl mice [2]; Ova antigen alone, unadjuvanted, day 28): less than three
